Read-outs that look alike come from different tables or passages of the source.
How the values were obtained:
Type in all cases: cell-based
[1] = test system: SKBR3 cells express WT PI3Ka; test: In vitro cell proliferation, SKBR3 cells (CellTiter-Glo); conditions: inhibition of proliferation
Outline: (§1)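 T47D (PI3Kα H1047R; RPMI, 10% FBS, insulin 0.2 units/mL) or SKBR3 (WT PI3Kα; McCoys 5a, 10% FBS) cells seeded at 1,500 cells/well on 10-point compound dilutions, grown 72 h at 37 °C. CellTiter-Glo luminescence; inhibition normalised to 0.1% DMSO and 10 uM alpelisib, EC50 from four-parameter fit.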

[2] = test system: phosphorylation of AKT (pAKT) in T47D cells expressing mutant PI3Ka (H1047R); test: In vitro cell pAKT (Ser473) HTRF, T47D cells; conditions: cellular pAKT, T47D cells, mutant PI3Ka (H1047R), 6 hours, read-out: Avg T-47D IC50
Outline: (§2)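 Cells seeded on plates pre-stamped with 10-point compound dilutions, then grown 6 h at 37 °C (T47D in RPMI/10% FBS/insulin; SKBR3 in McCoy's 5a/10% FBS). Lysates read for pAKT Ser473 by HTRF after overnight antibody incubation. Inhibition normalised to 0.1% DMSO and 10 uM alpelisib; IC50 by four-parameter fit.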

[3] = test system: T47D cells expressing mutant PI3Ka (H1047R); test: In vitro cell proliferation, T47D cells (CellTiter-Glo); conditions: inhibition of proliferation, read-out: Avg T-47D EC50
Outline: as §1

[4] = test system: phosphorylation of AKT (pAKT) in SKBR3 cells express WT PI3Ka; test: In vitro cell pAKT (Ser473) HTRF, SKBR3 cells; conditions: cellular pAKT
Outline: as §2

SMILES	EC50 ([1]; Homo sapiens, SK-BR-3, 72 h) [µM]	IC50 ([2]; Homo sapiens, T47D, 6 h) [nM]	EC50 ([3]; Homo sapiens, T47D, 72 h) [nM]	IC50 ([4]; Homo sapiens, SK-BR-3, 6 h) [µM]	EC50 ([1]; 72 hours) [µM]	IC50 [2] [nM]	EC50 ([3]; 72 hours) [nM]	IC50 ([4]; 6 hours) [µM]
Cc1cc(C(C)Nc2ccccc2C(=O)O)c2cc(N3CCn4c(C)nnc4C3)n(C)c(=O)c2c1 (stereo not drawn) [Example 58]	> 15	> 15000	> 15000	> 15				
Cc1cc(C(C)Nc2ccccc2C(=O)O)c2cc(N3CCN(C)CC3)n(C)c(=O)c2c1 (stereo not drawn) [Example 59]	> 15	500 to 2000	500 to 2000	> 15				
Cc1cc(C(C)Nc2ccccc2C(=O)O)c2cc(N3CCN(CC(F)(F)F)CC3)n(C)c(=O)c2c1 (stereo not drawn) [Example 61]					> 15	1 to 500	500 to 2000	> 15
Cc1cc(C(C)Nc2ccccc2C(=O)O)c2cc(N3CCC4(CCCC4)CC3)n(C)c(=O)c2c1 (stereo not drawn) [Example 62]	> 15	500 to 2000	500 to 2000	> 15				
Cc1cc(C(C)Nc2ccccc2C(=O)O)c2cc(N3CCC4(CCC4)CC3)n(C)c(=O)c2c1 (stereo not drawn) [Example 63]	> 15	1 to 500	2000 to 15000	> 15				
Cc1cc(C(C)Nc2ccccc2C(=O)O)c2cc(N3CC[C@H](c4ccccc4)C3)n(C)c(=O)c2c1 (stereo partly drawn) [Example 64]	> 15	1 to 500	500 to 2000	> 15				
Cc1cc(C(C)Nc2ccccc2C(=O)O)c2cc(N3Cc4cccnc4C3)n(C)c(=O)c2c1 (stereo not drawn) [Example 65]	> 15	1 to 500	500 to 2000	> 15				
Cc1cc(C(C)Nc2ccccc2C(=O)O)c2cc(N3Cc4ccncc4C3)n(C)c(=O)c2c1 (stereo not drawn) [Example 66]	> 15	1 to 500	1 to 500	> 15				
Cc1cc(C(C)Nc2ccccc2C(=O)O)c2cc(N3Cc4cccc(C(F)(F)F)c4C3)n(C)c(=O)c2c1 (stereo not drawn) [Example 67]					> 15	1 to 500	500 to 2000	> 15
Cc1cc(C(C)Nc2ccccc2C(=O)O)c2cc(-c3ccc(C)nc3)n(C)c(=O)c2c1 (stereo not drawn) [Example 68]	> 15	1 to 500	500 to 2000	> 15				
Cc1cc(C(C)Nc2ccccc2C(=O)O)c2cc(N3C4CCCC3CC4)n(C)c(=O)c2c1 (stereo not drawn) [Example 69]	> 15	1 to 500	500 to 2000	> 15				
Cc1cc(C(C)Nc2ccccc2C(=O)O)c2cc(N3C[C@@H]4[C@@H](C#N)[C@@H]4C3)n(C)c(=O)c2c1 (stereo partly drawn) [Example 70]	> 15	500 to 2000	500 to 2000	> 15				
Cc1cc(C(C)Nc2ccc(Cl)nc2C(=O)O)c2cc(N3Cc4ccc(F)cc4C3)n(C)c(=O)c2c1 (stereo not drawn) [Example 71]	> 15	1 to 500	500 to 2000	2 to 15				
Cc1cc(C(C)Nc2ccccc2C(=O)O)c2cc(N3Cc4cncnc4C3)n(C)c(=O)c2c1 (stereo not drawn) [Example 72]	> 15	500 to 2000	2000 to 15000	> 15				
Cc1cc([C@@H](C)Nc2ccccc2C(=O)O)c2cc(N3C[C@H]4CN(CC(F)(F)F)C[C@H]4C3)n(C)c(=O)c2c1 [Example 73]	> 15	1 to 500	500 to 2000	> 15				
Cc1ccc(-c2cc3c(C(C)Nc4ccccc4C(=O)O)cc(C)cc3c(=O)n2C)nc1 (stereo not drawn) [Example 74]	> 15	500 to 2000	2000 to 15000	> 15				
Cc1cc(C(C)Nc2ccccc2C(=O)O)c2cc(-c3cc4ccc(F)cc4[nH]3)n(C)c(=O)c2c1 (stereo not drawn) [Example 75]	> 15	1 to 500	500 to 2000	> 15				
Cc1cc(C(C)Nc2ccccc2C(=O)O)c2cc(N3Cc4cc(F)cc(F)c4C3)n(C)c(=O)c2c1 (stereo not drawn) [Example 84]	> 15	1 to 500	500 to 2000	> 15				
Cc1cc(C(C)Nc2ccccc2C(=O)O)c2cc(N3CC4CCC(C4)C3)n(C)c(=O)c2c1 (stereo not drawn) [Example 85]	> 15	1 to 500	1 to 500	2 to 15				
Cc1cc(C(C)Nc2ccccc2C(=O)O)c2cc(N3CCc4ncncc4C3)n(C)c(=O)c2c1 (stereo not drawn) [Example 86]	> 15	500 to 2000	2000 to 15000	> 15				
CC(=O)N1C[C@@H]2CN(c3cc4c(C(C)Nc5ccccc5C(=O)O)cc(C)cc4c(=O)n3C)C[C@H]2C1 (stereo partly drawn) [Example 87]	> 15	2000 to 15000	2000 to 15000	> 15				
Cc1cc(C(C)Nc2ccc(Cl)nc2C(=O)O)c2cc(N3CCC(C)(C)CC3)n(C)c(=O)c2c1 (stereo not drawn) [Example 88]	2 to 15	500 to 2000	500 to 2000	> 15				
Cc1cc(C(C)Nc2ccccc2C(=O)O)c2cc(N3Cc4c(F)c(F)c(F)c(F)c4C3)n(C)c(=O)c2c1 (stereo not drawn) [Example 89]	> 15	500 to 2000	2000 to 15000	> 15				
Cc1cc(C(C)Nc2ccccc2C(=O)O)c2cc(N3CCC4(CCN(CC(F)(F)F)CC4)CC3)n(C)c(=O)c2c1 (stereo not drawn) [Example 91]					2 to 15	1 to 500	1 to 500	> 15
Cc1cc(C(C)Nc2ccccc2C(=O)O)c2cc(N3CCC4(CCN(CC(F)(F)F)C4)CC3)n(C)c(=O)c2c1 (stereo not drawn) [Example 94]	2 to 15	1 to 500	1 to 500	2 to 15				
COCCC(=O)N1CCN(c2cc3c(C(C)Nc4ccccc4C(=O)O)cc(C)cc3c(=O)n2C)CC1 (stereo not drawn) [Example 95]	> 15	500 to 2000	500 to 2000	> 15				
Cc1cc([C@@H](C)Nc2ccccc2C(=O)O)c2cc(N3CC[C@@]4(CCCN(CC(F)(F)F)C4)C3)n(C)c(=O)c2c1 [Example 98]	> 15	1 to 500	500 to 2000	> 15				
